From patent US20250009713A1 (priority 2021, published 2025)
Entries after “also recorded” stand apart in the source; their conditions may differ. Where two headings read alike, the source gives them in different places.

Key:
[1] = system: SARS-COV-2 (2019n-COV/USA-WA1/2020); assay type: in vivo, K18-hACE2 mice; details: for reduction of viral load in lung: 7 days, Day 7
[2] = system: IL-6; IL-1a; IL-1B; TNFα; TGFβ; MCP-1; assay type: in vivo, K18-hACE2 mice; details: 7 days post infection
[3] = system: SARS-COV-2 US-WA1/2020 (NR-52281); experiment: plaque assay of infectious virus released into culture medium, Vero cells; assay type: cell-based
[4] = system: SARS-COV-2 Japan/TY7-503/2021-Brazil_P.1 (NR-54982); experiment: qRT-PCR of viral genome copies released into culture medium, Vero cells; assay type: cell-based
[5] = system: six strains of SARS-COV-2; experiment: qRT-PCR assay, summary over six strains and two cell types; assay type: cell-based
[6] = system: six strains of SARS-COV-2; experiment: plaque assay, summary over six strains and two cell types; assay type: cell-based
[7] = system: SARS-COV-2 US-WA1/2020 (NR-52281); experiment: plaque assay of infectious virus released into culture medium, Calu-3 cells; assay type: cell-based
[8] = system: SARS-COV-2 (2019n-COV/USA-WA1/2020); assay type: in vivo, K18-hACE2 mice
[9] = system: SARS-COV-2 Japan/TY7-503/2021-Brazil_P.1 (NR-54982); experiment: qRT-PCR of viral genome copies released into culture medium, Calu-3 cells; assay type: cell-based
[10] = system: SARS-COV-2 Japan/TY7-503/2021-Brazil_P.1 (NR-54982); experiment: plaque assay of infectious virus released into culture medium, Calu-3 cells; assay type: cell-based
[11] = system: SARS-COV-2 US-WA1/2020 (NR-52281); experiment: qRT-PCR of viral genome copies released into culture medium, Vero cells; assay type: cell-based
[12] = system: SARS-COV-2 US-WA1/2020 (NR-52281); experiment: qRT-PCR of viral genome copies released into culture medium, Calu-3 cells; assay type: cell-based
[13] = system: SARS-COV-2 (2019n-COV/USA-WA1/2020); assay type: in vivo, K18-hACE2 mice; details: for reduction of infectious virus recovered from lung tissue: 7 days, Day 7, P<0.001
[14] = system: SARS-COV-2 Japan/TY7-503/2021-Brazil_P.1 (NR-54982); experiment: plaque assay of infectious virus released into culture medium, Vero cells; assay type: cell-based
[15] = 300 mg/kg twice daily, day 5 (Experiment 3) or Day 12 (Experiment 2), 11 mice
[16] = Experiment 1, 100 mg/kg or 300 mg/kg for 7 days, vs vehicle
[17] = Severe acute respiratory syndrome coronavirus 2, m.o.i 0.1, BIT225 added 1 hour pre-infection, 4 days post infection
[18] = Severe acute respiratory syndrome coronavirus 2, virus BR, m.o.i 0.1, BIT225 added 1 hour pre-infection, 4 days post infection
[19] = virus BR, log-logistic curve fit
[20] = Severe acute respiratory syndrome coronavirus 2, virus WA1, m.o.i 0.1, BIT225 added 1 hour pre-infection, 4 days post infection
[21] = virus WA1, log-logistic curve fit

With `Cn1cc(-c2cccc3cc(C(=O)NC(=N)N)ccc23)cn1` [BIT225, N-carbamimidoyl-5-(1-methyl-1H-pyrazol-4-yl)-2-naphthamide] the “lung viral loads (qRT-PCR)” value [1, 15] was “at or below the limits of detection”, the “viral load in serum” value [1, 16] was “significant reductions” and the “reduction of viral load in lung” value ([1]; Experiment 1, 100 mg/kg twice daily, vs vehicle, P<0.001) was “approximately 2 log 10”. For the same compound, the “reduction of viral load in lung” value ([1]; Experiment 1, 300 mg/kg twice daily, vs vehicle) was “approximately 3.5 log 10”, the “IL-6 level, statistically significant (P<0.05) lower than vehicle control” value ([2]; 100 mg/kg dose group) was “exception” and the “mean and median cytokine concentrations relative to vehicle control group” value ([2]; high-dose BIT225 group (300 mg/kg)) was “less than half”. For the same compound, the “end-of-treatment levels of IL-6, IL-1a, IL-1B, TNFα, TGFβ and MCP-1” value ([2]; lung and serum, 100 or 300 mg/kg twice daily, vs vehicle control) was “reduced”, the EC50 [3, 17] was 4.09 µM and the “Max. Response (d)” value ([3]; log-logistic curve fit) was 6.40 log10. For the same compound, the “Slope (b)” value ([3]; log-logistic curve fit) was 1.45, the EC50 [4, 18] was 4.03 µM and the “Max. Response (d)” value [4, 19] was 3.53 log10. For the same compound, the “Slope (b)” value [4, 19] was 1.13, the EC50 ([5]; Severe acute respiratory syndrome coronavirus 2, read-out: EC50 estimates, range) was 2.5 to 4.8 µM and the EC50 ([5]; Severe acute respiratory syndrome coronavirus 2, qRT-PCR assay, mean over six strains and two cell types, read-out: EC50, mean) was 3.7 µM. The EC50 ([6]; Severe acute respiratory syndrome coronavirus 2, read-out: EC50, range) was 3.4 to 7.9 µM, the EC50 ([6]; Severe acute respiratory syndrome coronavirus 2, plaque assay, mean over six strains and two cell types, read-out: EC50, mean) was 6.2 µM and the EC50 [7, 17] was 3.43 µM. For the same compound, the “Max. Response (d)” value ([7]; log-logistic curve fit) was 3.38 log10, the “Slope (b)” value ([7]; log-logistic curve fit) was 1.31 and the “survival to day 5 (Experiment 3) or Day 12 (Experiment 2)” value ([8]; 11 mice, 300 mg/kg twice daily) was “all survived”. For the same compound, the “difference in body weight changes between the two BIT225 dosing levels” value ([8]; Experiment 1, 100 mg/kg vs 300 mg/kg twice daily, 7 days) was “no significant difference”, the “difference between group-mean body weight changes, vehicle lower than combined BIT225 groups” value ([8]; Experiment 1, day 5, P=0.01) was 3.8% and the “difference between group-mean body weight changes, vehicle lower than combined BIT225 groups” value ([8]; Experiment 1, day 6, P=0.001) was 6.4%. For the same compound, the “mice with body weights greater than their pre-infection weights” value ([8]; Experiment 1, day 7, 100 mg/kg or 300 mg/kg twice daily) was “all 10”, the “difference between group-mean body weight changes, vehicle lower than combined BIT225 groups” value ([8]; Experiment 1, day 7, 95% CI [5.6-10.7], P=0.001) was 8.1% and the “survival and weight gain to day 12” value ([8]; Experiment 2, 300 mg/kg twice daily for 12 days, n=7, all vehicle mice died by day 9, P<0.001 log-rank, 300 mg/kg) was “all mice survived and continued to gain weight; also recorded: all seven mice in the BIT225 group survived”. For the same compound, the “health and weight change to Day 5” value ([8]; Experiment 3, 300 mg/kg twice daily, 5 days, n=4) was “remained healthy and gained weight to Day 5”, the “survival, health and weight gain through day 12” value ([8]; Experiment 4, 300 mg/kg twice daily starting 24 h post-infection, n=5, 300 mg/kg) was “remained healthy and continued gain weight as per age expectations through to day 12; also recorded: survived to Day 12” and the “survival, health and weight gain through day 12” value ([8]; Experiment 4, 300 mg/kg twice daily starting 24 h pre-infection, n=5, 300 mg/kg) was “remained healthy and continued gain weight as per age expectations through to day 12; also recorded: survived to Day 12”. For the same compound, the “mice that died (day 11)” value ([8]; Experiment 4, 300 mg/kg twice daily starting 48 h post-infection, n=5, 300 mg/kg) was “One of the five; also recorded: one mouse”, the “mice that continued to gain body weight” value ([8]; across three experiments, 12 hourly oral doses of BIT225 (100 or 300 mg/kg), intranasal) was 21 out of 21 and the EC50 [9, 18] was 4.64 µM. For the same compound, the “Max. Response (d)” value [9, 19] was 2.53 log10, the “Slope (b)” value [9, 19] was 1.12 and the EC50 [10, 18] was 5.79 µM. For the same compound, the “Max. Response (d)” value [10, 19] was 3.39 log10, the “Slope (b)” value [10, 19] was 1.36 and the EC50 [11, 20] was 2.53 µM. The “Max. Response (d)” value [11, 21] was 3.29 log10, the “Slope (b)” value [11, 21] was 1.79 and the EC50 [12, 20] was 2.55 µM. For the same compound, the “Max. Response (d)” value [12, 21] was 2.41 log10, the “Slope (b)” value [12, 21] was 1.38 and the lung plaque counts [13, 15] was < 200 mL⁻¹. For the same compound, the “infectious virus in serum” value [13, 16] was “significant reductions”, the “reduction of infectious virus recovered from lung tissue” value ([13]; Experiment 1, 100 mg/kg twice daily) was “approximately 2000 PFU/mL” and the “reduction of infectious virus recovered from lung tissue” value ([13]; Experiment 1, 300 mg/kg twice daily) was ~4000 PFU/mL. The EC50 [14, 18] was 6.36 µM, the “Max. Response (d)” value [14, 19] was 6.39 log10 and the “Slope (b)” value [14, 19] was 1.67.
